Laboratory results from ChEMBL document CHEMBL3991601, “The target landscape of clinical kinase drugs” (Science, 2017).
Calls of active or inactive are those of the source. Rule as the data show it, for most assays here: actives have a measured Kd and inactives only a lower limit.

Experiments:
[1] = target: Actin-related protein 2 (Homo sapiens, UniProt P61160)
[2] = target: Activin receptor type-2B (Homo sapiens, UniProt Q13705)
[3] = target: Ephrin type-A receptor 2 (Homo sapiens, UniProt P29317)
Sequence of Ephrin type-A receptor 2 (P29317 whole entry): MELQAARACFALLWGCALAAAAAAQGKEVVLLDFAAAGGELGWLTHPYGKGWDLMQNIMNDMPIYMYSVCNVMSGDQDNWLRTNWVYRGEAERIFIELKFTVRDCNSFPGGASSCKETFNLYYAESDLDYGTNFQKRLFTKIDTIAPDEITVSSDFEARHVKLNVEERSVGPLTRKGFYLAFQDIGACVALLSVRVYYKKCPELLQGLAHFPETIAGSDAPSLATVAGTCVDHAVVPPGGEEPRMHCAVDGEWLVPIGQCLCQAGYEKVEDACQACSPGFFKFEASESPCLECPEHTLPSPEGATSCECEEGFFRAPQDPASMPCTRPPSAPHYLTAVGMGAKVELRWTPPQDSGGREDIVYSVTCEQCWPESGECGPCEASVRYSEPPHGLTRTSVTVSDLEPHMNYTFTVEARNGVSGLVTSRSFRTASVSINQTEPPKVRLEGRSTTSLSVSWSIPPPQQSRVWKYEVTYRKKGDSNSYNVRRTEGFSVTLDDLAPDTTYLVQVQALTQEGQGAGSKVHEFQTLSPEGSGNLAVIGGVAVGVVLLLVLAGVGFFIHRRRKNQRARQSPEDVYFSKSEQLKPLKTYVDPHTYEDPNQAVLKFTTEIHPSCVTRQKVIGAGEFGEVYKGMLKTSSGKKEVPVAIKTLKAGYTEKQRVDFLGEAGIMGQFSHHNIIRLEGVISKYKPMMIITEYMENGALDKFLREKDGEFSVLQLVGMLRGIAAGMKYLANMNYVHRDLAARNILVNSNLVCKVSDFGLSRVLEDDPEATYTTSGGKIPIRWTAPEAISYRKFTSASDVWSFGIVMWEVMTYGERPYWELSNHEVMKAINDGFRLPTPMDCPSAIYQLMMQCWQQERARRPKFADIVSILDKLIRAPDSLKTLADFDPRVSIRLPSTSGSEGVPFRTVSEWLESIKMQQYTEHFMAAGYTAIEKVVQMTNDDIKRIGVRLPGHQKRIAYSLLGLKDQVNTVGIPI

[4] = target: T1, Ephrin type-B receptor 6 (Homo sapiens, UniProt O15197)
T1 sequence (O15197 whole entry): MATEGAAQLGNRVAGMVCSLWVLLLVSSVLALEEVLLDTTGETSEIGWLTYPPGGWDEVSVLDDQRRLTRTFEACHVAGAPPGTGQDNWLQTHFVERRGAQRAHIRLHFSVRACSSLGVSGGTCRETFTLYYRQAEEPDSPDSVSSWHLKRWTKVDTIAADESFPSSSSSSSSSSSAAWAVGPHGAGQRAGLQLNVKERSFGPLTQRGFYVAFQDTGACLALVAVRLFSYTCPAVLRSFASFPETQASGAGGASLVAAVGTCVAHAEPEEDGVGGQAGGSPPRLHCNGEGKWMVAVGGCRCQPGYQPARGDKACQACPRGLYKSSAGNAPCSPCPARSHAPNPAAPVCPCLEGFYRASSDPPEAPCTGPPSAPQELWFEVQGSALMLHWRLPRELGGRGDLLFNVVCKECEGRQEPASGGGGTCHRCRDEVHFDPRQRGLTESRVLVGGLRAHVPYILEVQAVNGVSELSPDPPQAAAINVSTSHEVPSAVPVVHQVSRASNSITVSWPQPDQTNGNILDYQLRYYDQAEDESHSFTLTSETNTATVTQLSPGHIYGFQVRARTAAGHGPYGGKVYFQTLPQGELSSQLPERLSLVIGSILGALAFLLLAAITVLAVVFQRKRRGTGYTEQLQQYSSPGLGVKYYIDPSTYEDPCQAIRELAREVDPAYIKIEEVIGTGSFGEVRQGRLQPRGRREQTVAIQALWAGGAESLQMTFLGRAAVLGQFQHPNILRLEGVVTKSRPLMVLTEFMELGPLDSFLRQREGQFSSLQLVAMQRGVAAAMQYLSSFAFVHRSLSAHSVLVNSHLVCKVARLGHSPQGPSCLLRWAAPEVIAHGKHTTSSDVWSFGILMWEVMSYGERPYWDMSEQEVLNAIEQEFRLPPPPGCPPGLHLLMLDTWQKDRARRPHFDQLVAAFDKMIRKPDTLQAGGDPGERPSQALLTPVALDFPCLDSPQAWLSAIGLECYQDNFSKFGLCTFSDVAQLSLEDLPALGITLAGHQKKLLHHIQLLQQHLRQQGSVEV

[5] = target: T2, Mitogen-activated protein kinase kinase kinase kinase 3 (Homo sapiens, UniProt Q8IVH8)
T2 sequence (Q8IVH8 whole entry): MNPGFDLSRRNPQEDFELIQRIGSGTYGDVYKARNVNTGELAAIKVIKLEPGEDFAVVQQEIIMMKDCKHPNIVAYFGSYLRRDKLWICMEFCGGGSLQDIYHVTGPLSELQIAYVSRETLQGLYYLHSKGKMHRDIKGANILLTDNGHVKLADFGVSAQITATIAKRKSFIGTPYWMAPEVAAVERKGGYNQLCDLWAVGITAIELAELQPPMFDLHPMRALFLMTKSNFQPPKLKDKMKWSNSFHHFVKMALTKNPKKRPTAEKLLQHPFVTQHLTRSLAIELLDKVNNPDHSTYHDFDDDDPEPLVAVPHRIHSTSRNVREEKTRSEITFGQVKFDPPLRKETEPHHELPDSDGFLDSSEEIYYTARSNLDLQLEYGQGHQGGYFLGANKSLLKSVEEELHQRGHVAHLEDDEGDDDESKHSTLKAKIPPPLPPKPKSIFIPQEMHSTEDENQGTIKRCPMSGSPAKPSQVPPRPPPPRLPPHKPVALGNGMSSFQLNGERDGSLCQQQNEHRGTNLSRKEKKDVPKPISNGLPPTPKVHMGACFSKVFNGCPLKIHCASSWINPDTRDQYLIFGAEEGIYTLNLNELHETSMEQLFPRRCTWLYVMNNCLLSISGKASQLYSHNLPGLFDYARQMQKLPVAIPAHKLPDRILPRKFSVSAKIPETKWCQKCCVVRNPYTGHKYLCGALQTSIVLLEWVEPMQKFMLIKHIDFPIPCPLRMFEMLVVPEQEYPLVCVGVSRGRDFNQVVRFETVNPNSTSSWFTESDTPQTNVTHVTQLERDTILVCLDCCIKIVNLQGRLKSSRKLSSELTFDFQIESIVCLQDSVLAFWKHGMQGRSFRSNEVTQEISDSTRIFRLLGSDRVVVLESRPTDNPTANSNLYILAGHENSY

[6] = target: Mitogen-activated protein kinase 1 (Homo sapiens, UniProt P28482)
Sequence of Mitogen-activated protein kinase 1 (P28482 whole entry): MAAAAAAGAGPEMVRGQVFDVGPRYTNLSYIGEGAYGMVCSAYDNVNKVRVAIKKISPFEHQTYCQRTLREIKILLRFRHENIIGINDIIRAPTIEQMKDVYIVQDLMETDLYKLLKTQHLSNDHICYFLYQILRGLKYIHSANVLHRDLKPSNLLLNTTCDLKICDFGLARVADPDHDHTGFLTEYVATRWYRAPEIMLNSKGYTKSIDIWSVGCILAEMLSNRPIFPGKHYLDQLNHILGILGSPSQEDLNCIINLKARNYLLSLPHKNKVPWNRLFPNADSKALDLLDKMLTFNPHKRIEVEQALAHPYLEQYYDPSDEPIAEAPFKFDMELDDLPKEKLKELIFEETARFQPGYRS

[7] = target: cAMP-dependent protein kinase catalytic subunit gamma (Homo sapiens, UniProt P22612)
Sequence of cAMP-dependent protein kinase catalytic subunit gamma (P22612 whole entry): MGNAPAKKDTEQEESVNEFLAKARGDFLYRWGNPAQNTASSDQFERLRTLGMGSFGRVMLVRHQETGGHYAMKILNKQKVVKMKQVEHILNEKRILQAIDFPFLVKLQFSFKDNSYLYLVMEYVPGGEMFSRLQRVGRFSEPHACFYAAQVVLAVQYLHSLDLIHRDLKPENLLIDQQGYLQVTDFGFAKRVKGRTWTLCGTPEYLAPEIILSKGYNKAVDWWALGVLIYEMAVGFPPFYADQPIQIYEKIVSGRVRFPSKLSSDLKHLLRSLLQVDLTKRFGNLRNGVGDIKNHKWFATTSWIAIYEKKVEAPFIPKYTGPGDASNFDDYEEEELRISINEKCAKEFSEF

[8] = target: Rho-associated protein kinase 1 (Homo sapiens, UniProt Q13464)
Sequence of Rho-associated protein kinase 1 (Q13464 whole entry): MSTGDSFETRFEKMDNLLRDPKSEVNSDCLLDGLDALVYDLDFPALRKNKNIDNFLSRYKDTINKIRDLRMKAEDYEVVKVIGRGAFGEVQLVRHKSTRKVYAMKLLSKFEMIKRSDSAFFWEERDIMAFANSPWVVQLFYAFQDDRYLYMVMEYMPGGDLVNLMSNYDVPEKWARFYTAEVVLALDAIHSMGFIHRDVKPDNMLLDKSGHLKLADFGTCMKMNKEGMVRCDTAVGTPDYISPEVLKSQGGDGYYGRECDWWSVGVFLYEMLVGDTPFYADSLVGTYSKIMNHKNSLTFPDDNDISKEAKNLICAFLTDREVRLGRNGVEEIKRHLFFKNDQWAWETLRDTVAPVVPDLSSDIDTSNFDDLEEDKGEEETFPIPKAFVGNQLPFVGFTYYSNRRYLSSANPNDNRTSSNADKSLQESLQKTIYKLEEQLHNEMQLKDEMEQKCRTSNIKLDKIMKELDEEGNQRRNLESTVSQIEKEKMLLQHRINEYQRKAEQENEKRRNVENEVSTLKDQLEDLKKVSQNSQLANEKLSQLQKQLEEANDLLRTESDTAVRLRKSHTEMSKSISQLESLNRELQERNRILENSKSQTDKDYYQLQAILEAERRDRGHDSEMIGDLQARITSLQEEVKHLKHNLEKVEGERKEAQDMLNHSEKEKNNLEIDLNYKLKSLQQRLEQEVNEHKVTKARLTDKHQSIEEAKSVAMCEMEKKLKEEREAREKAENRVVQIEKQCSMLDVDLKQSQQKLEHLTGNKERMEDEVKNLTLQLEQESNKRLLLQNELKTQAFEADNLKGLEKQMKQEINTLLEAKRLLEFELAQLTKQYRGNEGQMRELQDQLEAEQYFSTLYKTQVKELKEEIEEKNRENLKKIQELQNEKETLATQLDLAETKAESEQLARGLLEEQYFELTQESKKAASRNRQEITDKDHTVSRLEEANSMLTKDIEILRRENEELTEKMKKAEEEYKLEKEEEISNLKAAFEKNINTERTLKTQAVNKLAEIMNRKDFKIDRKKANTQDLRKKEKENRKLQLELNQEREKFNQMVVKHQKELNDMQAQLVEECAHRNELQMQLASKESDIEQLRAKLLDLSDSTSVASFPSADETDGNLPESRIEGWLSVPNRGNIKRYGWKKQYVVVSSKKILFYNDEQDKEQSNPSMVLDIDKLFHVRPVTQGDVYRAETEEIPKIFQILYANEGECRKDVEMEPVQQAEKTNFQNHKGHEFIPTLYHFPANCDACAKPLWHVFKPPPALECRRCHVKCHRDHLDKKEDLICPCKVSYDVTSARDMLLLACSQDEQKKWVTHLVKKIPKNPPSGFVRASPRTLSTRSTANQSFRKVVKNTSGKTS

[9] = target: T3, Serine/threonine-protein kinase ULK3 (Homo sapiens, UniProt Q6PHR2)
T3 sequence (Q6PHR2 whole entry): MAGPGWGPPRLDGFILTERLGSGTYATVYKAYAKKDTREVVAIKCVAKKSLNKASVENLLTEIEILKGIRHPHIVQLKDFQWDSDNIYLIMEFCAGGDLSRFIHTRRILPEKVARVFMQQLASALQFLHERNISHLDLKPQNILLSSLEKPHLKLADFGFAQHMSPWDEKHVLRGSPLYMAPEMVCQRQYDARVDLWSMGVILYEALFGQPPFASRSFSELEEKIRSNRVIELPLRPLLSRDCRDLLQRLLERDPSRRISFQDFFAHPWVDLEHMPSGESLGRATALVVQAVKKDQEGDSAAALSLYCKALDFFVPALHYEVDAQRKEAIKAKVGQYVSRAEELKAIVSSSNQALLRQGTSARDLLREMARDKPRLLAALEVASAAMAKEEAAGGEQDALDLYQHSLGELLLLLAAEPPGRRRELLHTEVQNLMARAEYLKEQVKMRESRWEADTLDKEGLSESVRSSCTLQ
Also: in the data inactive means no Kd found up to 30 µM.

Sequence of Activin receptor type-2B (Q13705 whole entry): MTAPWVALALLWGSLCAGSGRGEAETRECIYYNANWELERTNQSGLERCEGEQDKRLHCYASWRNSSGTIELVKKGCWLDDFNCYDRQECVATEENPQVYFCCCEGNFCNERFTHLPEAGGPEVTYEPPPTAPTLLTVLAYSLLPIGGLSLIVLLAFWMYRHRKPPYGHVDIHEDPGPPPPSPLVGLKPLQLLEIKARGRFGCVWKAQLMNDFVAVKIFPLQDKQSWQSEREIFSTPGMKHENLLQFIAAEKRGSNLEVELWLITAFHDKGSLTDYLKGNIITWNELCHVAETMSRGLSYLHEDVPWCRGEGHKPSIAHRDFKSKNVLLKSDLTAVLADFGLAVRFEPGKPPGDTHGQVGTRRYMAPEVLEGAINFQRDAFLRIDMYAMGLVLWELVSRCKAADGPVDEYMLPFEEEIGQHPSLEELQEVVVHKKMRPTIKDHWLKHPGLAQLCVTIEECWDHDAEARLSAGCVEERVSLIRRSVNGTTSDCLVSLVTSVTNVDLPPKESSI

Kd [1]	Kd [2]	Kd [3]	Kd [4]	Kd [5]	Kd [6]	Kd [7]	Kd [8]	Kd [9]	Structure (SMILES)
> 30 µM (inactive)	> 30 µM (inactive)	> 30 µM (inactive)	> 30 µM (inactive)	> 30 µM (inactive)	> 30 µM (inactive)	> 30 µM (inactive)	> 30 µM (inactive)	> 30 µM (inactive)	N[C@@H]1CCCN(c2c(/C=C3\SC(=O)NC3=O)cccc2-c2ccccc2)C1
> 30 µM (inactive)	–	> 30 µM (inactive)	> 30 µM (inactive)	> 30 µM (inactive)	> 30 µM (inactive)	> 30 µM (inactive)	> 30 µM (inactive)	> 30 µM (inactive)	Cc1ccc(S(=O)(=O)Nc2nc3ccccc3nc2Nc2ccc3nsnc3c2)cc1
> 30 µM (inactive)	> 30 µM (inactive)	> 30 µM (inactive)	> 30 µM (inactive)	> 30 µM (inactive)	> 30 µM (inactive)	> 30 µM (inactive)	> 30 µM (inactive)	> 30 µM (inactive)	CCN1CCN(Cc2ccc(-c3cc4c(N[C@H](C)c5ccccc5)ncnc4[nH]3)cc2)CC1 [AEE-788]
–	> 30 µM (inactive)	1.25 µM (active)	> 30 µM (inactive)	> 30 µM (inactive)	> 30 µM (inactive)	> 30 µM (inactive)	> 30 µM (inactive)	> 30 µM (inactive)	COc1cc(N2CCC(N3CCN(C)CC3)CC2)ccc1Nc1ncnc(Nc2ccccc2S(=O)(=O)C(C)C)n1 [ASP-3026]
> 30 µM (inactive)	> 30 µM (inactive)	> 30 µM (inactive)	> 30 µM (inactive)	> 30 µM (inactive)	> 30 µM (inactive)	> 30 µM (inactive)	> 30 µM (inactive)	> 30 µM (inactive)	Cc1cc([C@@H](C)Nc2ccccc2C(=O)O)c2nc(N3CCOCC3)cc(=O)n2c1 [AZD-6482]
> 30 µM (inactive)	> 30 µM (inactive)	> 30 µM (inactive)	> 30 µM (inactive)	> 30 µM (inactive)	> 30 µM (inactive)	> 30 µM (inactive)	> 30 µM (inactive)	> 30 µM (inactive)	COc1ccc(-c2ccc3c(N4CCOC[C@@H]4C)nc(N4CCOC[C@@H]4C)nc3n2)cc1CO [AZD-8055]
> 30 µM (inactive)	> 30 µM (inactive)	> 30 µM (inactive)	> 30 µM (inactive)	> 30 µM (inactive)	> 30 µM (inactive)	> 30 µM (inactive)	> 30 µM (inactive)	> 30 µM (inactive)	C[C@@H](Nc1cc(F)cc(F)c1)c1cc(C(=O)N(C)C)cc2c(=O)cc(N3CCOCC3)oc12 [AZD-8186]
> 30 µM (inactive)	> 30 µM (inactive)	0.09 µM (active)	> 30 µM (inactive)	> 30 µM (inactive)	> 30 µM (inactive)	> 30 µM (inactive)	> 30 µM (inactive)	> 30 µM (inactive)	Cc1ccc(NC(=O)c2ccc(CN3CC[C@H](N(C)C)C3)c(C(F)(F)F)c2)cc1Nc1nccc(-c2cncnc2)n1 [BAFETINIB]
> 30 µM (inactive)	> 30 µM (inactive)	> 30 µM (inactive)	> 30 µM (inactive)	> 30 µM (inactive)	> 30 µM (inactive)	> 30 µM (inactive)	0.482 µM (active)	> 30 µM (inactive)	CCS(=O)(=O)N1CC(CC#N)(n2cc(-c3ncnc4[nH]ccc34)cn2)C1 [BARICITINIB]
–	> 30 µM (inactive)	> 30 µM (inactive)	> 30 µM (inactive)	> 30 µM (inactive)	> 30 µM (inactive)	> 30 µM (inactive)	> 30 µM (inactive)	> 30 µM (inactive)	CNC(=O)c1ccc(-c2cnc3ncc(Cc4ccc5ncccc5c4)n3n2)cc1F [CAPMATINIB]
–	> 30 µM (inactive)	> 30 µM (inactive)	> 30 µM (inactive)	> 30 µM (inactive)	> 30 µM (inactive)	> 30 µM (inactive)	> 30 µM (inactive)	> 30 µM (inactive)	C1=C/COCc2cc(ccc2OCCN2CCCC2)Nc2nccc(n2)-c2cccc(c2)COC/1 [PACRITINIB]
> 30 µM (inactive)	> 30 µM (inactive)	> 30 µM (inactive)	–	> 30 µM (inactive)	> 30 µM (inactive)	> 30 µM (inactive)	> 30 µM (inactive)	> 30 µM (inactive)	CN1N=C(N)c2cn([C@@H]3O[C@H](COP(=O)(O)O)[C@@H](O)[C@H]3O)c3ncnc1c23 [TRICIRIBINE PHOSPHATE]

Structure (SMILES)	Kd [1]	Kd [2]	Kd [3]	Kd [4]	Kd [5]	Kd [6]	Kd [7]	Kd [8]	Kd [9]
CN1CC[C@@H](c2c(O)cc(O)c3c(=O)cc(-c4ccccc4Cl)oc23)[C@@H]1CO	> 30 µM (inactive)	> 30 µM (inactive)	> 30 µM (inactive)	> 30 µM (inactive)	> 30 µM (inactive)	> 30 µM (inactive)	> 30 µM (inactive)	> 30 µM (inactive)	> 30 µM (inactive)
Cc1cc(-c2cc(O)ccc2Cl)cc2nnc(Nc3ccc(OCCN4CCCC4)cc3)nc12	> 30 µM (inactive)	> 30 µM (inactive)	0.001 µM (active)	0.0006 µM (active)	> 30 µM (inactive)	> 30 µM (inactive)	> 30 µM (inactive)	> 30 µM (inactive)	> 30 µM (inactive)
O=C(c1ccc(F)c(F)c1Nc1ccc(I)cc1F)N1CC(O)([C@@H]2CCCCN2)C1 [COBIMETINIB]	–	> 30 µM (inactive)	> 30 µM (inactive)	> 30 µM (inactive)	> 30 µM (inactive)	> 30 µM (inactive)	> 30 µM (inactive)	> 30 µM (inactive)	> 30 µM (inactive)
C=CC(=O)N1CCC(Oc2cc3c(Nc4ccc(Cl)c(Cl)c4F)ncnc3cc2OC)CC1 [POZIOTINIB]	–	> 30 µM (inactive)	> 30 µM (inactive)	> 30 µM (inactive)	> 30 µM (inactive)	> 30 µM (inactive)	> 30 µM (inactive)	> 30 µM (inactive)	> 30 µM (inactive)
